{"source": "patent US8455510B2", "key": {"[1]": {"tested_on": "acute graft-versus-host disease (aGVHD)", "experiment": "Acute graft-versus-host disease (aGVHD) mouse model", "type": "in vivo, C57B/6 mice", "conditions": "1.5 mg/kg/d, intraperitoneal injection, FIG. 15", "description": "Donator: BABL/C mice; acceptor: C57B/6 mice.\nC57B/6(H-2^b) mice, female, 7 weeks old, were used as the acceptor mice to receive 8.5 Gy of total body irradiation in a Gammacell.\nAfter the acceptor mice received irradiation for 4 to 6 hours, the heterogenetic bone marrow transplantation was carried out.\nBABL/C(H-2^d) mice, female, 4 weeks old were used as the donator mice. The bone marrow cells in long bone of the mice limbs and the spleen lymphocytes were collected and suspended in a PBS buffer solution respectively by adjusting the cell concentration to 1×10^8.\nThe two kinds of cells were mixed equivalently to prepare a mixed cell suspension. Each acceptor mouse was intravenously injected with 0.5 ml of the suspension.\nMice were randomly divided into 3 groups with 10 mice in each group. Mice were administered once daily from the first day when the bone marrow transplantation was carried out.\nY-31 group (1.5 mg/kg/d, intraperitoneal injection)\n(1) Body weight: weighted once daily;\n(2) The survival time of the mice after BMT was recorded."}, "[2]": {"target": "T1, FKBP-12 protein (Homo sapiens, UniProt P62942)", "T1 construct": "purchased sigma Co", "T1 sequence (P62942 whole entry, species assumed)": "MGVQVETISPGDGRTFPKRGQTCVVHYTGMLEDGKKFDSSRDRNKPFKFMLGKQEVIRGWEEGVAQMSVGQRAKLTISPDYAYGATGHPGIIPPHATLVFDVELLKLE", "experiment": "SPR (surface plasma resonance) binding with FKBP-12", "description": "(1) FKBP-12 protein was purchased from sigma Co.\n(2) HBS-EP buffer solution (10 mM Hepes, 150 mM NaCl, 3.4 mM EDTA, 0.005% (v/v) surfactant P20, pH 7.4)\n(3) Activating reagents EDC and NHS, and blocking reagents Ethanolamine, etc., were purchased from BIACORE AB Co. (Uppsala, Sweden).\n(4) BIAcore 3000 and CM5 chip were purchased from BIACORE AB Co. (Uppsala, Sweden).\n(2) […] was coupled to the FC2 channel on CM5 chip by using the Wizard for amino-coupling in Biacore 3000 controlling soft. 3.3 g/L of FKBP-12 protein was diluted with 10 mM NaAC (pH 4.6) to 66 μg/ml. The surface of the chip was washed by injecting a mixture of 0.1M1-(3-dimethylaminopropyl)-3-ethylcarbodiimide hydrochloride (EDCI) and 0.1M N-hydroxysuccinimide (NHS) (1:1) at a flow rate of 20 μL/min for 7 min. After that, the protein solution was injected, and then a 1M cholamine (pH 8.5) solution was fed for 7 min to block the activated surface of the chip. Preliminary screening and pharmacokinetic tests on the compounds\nThe binding abilities of small molecular compounds with FKBP-12 protein were evaluated by SPR (surface plasma resonance). The stock solution of the compound was 10 mM, and was diluted by HBS-EP buffer solution at given ratios. Pharmacokinetic tests were carried out by the Wizard for kinetic analysis in Biacore 3000 controlling soft. The resulted data were fitted by 1:1 Langmuir binding model or stability model in Biacore 3000 analytical soft to obtain the exact kinetic and thermodynamic constants."}, "[3]": {"tested_on": "bovine type II collagen-induced arthritis", "experiment": "Bovine type II collagen-induced arthritis", "type": "in vivo, DBA/1 mice", "conditions": "1 mg/kg, from 14th day after attack, 3 weeks, FIG. 16, P<0.05"}}}
{"smiles": "CO[C@H]1C[C@@H]2CC[C@@H](C)[C@@](O)(O2)C(=O)C(=O)N2CCCC[C@H]2C(=O)O[C@H]([C@H](C)C[C@@H]2CC[C@@H](OC(=O)OCC(O)CO)[C@H](OC)C2)CC(=O)[C@H](C)/C=C(\\C)[C@@H](O)[C@@H](OC)C(=O)[C@H](C)C[C@H](C)/C=C/C=C/C=C/1C", "note": "(stereo partly drawn) [Y31]", "values": [{"measurement": "effect on the survival rate of the aGVHD mice", "setting": "[1]", "result": "markedly increase the survival rate"}, {"measurement": "effect on the weight loss caused by aGVHD", "setting": "[1]", "result": "significantly alleviate the weight loss"}, {"measurement": "binding with FKBP12", "setting": "[2]", "result": "concentration-dependently bind"}, {"measurement": "Kd", "setting": "[2]; FKBP12", "result": 0.1, "unit": "nM"}, {"measurement": "koff", "setting": "[2]; FKBP12", "result": "0.11 × 10^−3 S^−1"}, {"measurement": "kon", "setting": "[2]; FKBP12", "result": "1.05 × 10^6 M^−1S^−1"}, {"measurement": "R^U (Response Unit) compared with rapamycin", "setting": "[2]; at the same concentration", "result": "higher"}, {"measurement": "concentration to reach the saturation state for the binding with FKBP12", "setting": "[2]; compared with rapamycin", "result": "lower than that for rapamycin"}, {"measurement": "effect on the severe degree of CIA (arthritis score)", "setting": "[3]", "result": "significantly reduce the severe degree of CIA"}]}
